Measurements from patent publication US20220023325A1, “SPECIFIC TLR4 ANTAGONIST IN THE TREATMENT OF MULTIPLE MYELOMA” (Etablissement Français du Sang, priority 2016, published 2022).
Values joined by “and” are separate entries in the source; they are usually repeats but may differ in a detail not shown here. Equal entries are not always repeated.

How the values were obtained:
MOLP-6 cells [1] = experiment: MOLP-6 myeloma cells cultured alone, treated with C34; type: cell-based, human; settings: MOLP-6 alone, C34 1 μM or 10 μM
Method: (§1) FIG. 9: Number of myeloma cells (MOLP-6)after culture of MOLP-6 alone untreated (NT) or treated with 1 μM or 10 μM of C34 (TLR4 antagonist), or in coculture with a stroma of MSCs from healthy or MM donors, untreated or treated with 1 μM or 10 μM C34.
(§2) To evaluate the role of TLR4 in the MSC/myeloma cell interaction, the inventors used a specific TLR4 antagonist, the C34 compound, marketed by Tocris, and a stroma-dependent myeloma cell line, the MOLP-6 line. Some studies have used stroma-independent myeloma cell lines such as MM1S or RPM18226. In this study, in order to approach the pathology and mimic real interactions between MSC and plasma cells, the inventors used a stroma-dependent cell line for its proliferation. Indeed, during MM (in the establishment and maintenance phases of the disease), myeloma cells strongly adhere to the MSCs of the stroma, which gives chemoresistance and survival signals favoring the evolution of MM.
(§3) Then they treated the healthy MSCs and MM with the C34 before and in co-culture with the MOLP-6. With the healthy stroma, the C34 antagonist (at 1 and 10 μM) has no effect on the growth support of MOLP-6, whereas with the stroma of MM, the TLR4 antagonist affects growth of MOLP-6 cells at the two doses used (33% decrease, FIG. 9).

MOLP-6 cells [2] = experiment: MOLP-6 growth in coculture with stroma of MM patient MSCs; type: cell-based, human
Method: as §1, §2, §3
The inventors co-cultured MSCs from 4 healthy donors (H) or 5 patients suffering from MM (MYE) as well as stroma-dependent MOLP-6 plasma cells: • without treatment (NT) • in the presence of C34 alone at 1 μM (C34 1 μM), • in the presence of melphalan alone at 100 nM (Mel 100 nM), • in the presence of lenalidomide alone at 100 nM (Len 100 nM), • in the presence of a combination of C34 at 1 μM and melphalan at 100 nM (Mel 100 nM+C34 1 μM), or • in the presence of a combination of C34 at 1 μM and lenalidomide at 100 nM (Len 100 nM+C34 1 μM).
(§4) After 7 days of culture, they calculated the percent inhibition of plasmocyte growth (FIGS. 11 and 12).

MOLP-6 cells [3] = experiment: MOLP-6 growth in coculture with stroma of healthy donor MSCs; type: cell-based, human
Method: as §1, §2
as §3, with “9). […]” for “9).”
as §4

TLR4 [4] = target: T1, TLR4 (Homo sapiens, UniProt O00206+Q9Y6Y9); experiment: Adhesion molecule expression on MM patient MSCs after TLR4 stimulation; type: cell-based
T1 construct: the TLR4 molecule is overexpressed both at the transcriptional level (mRNA) and at the protein level in the MM MSCs; endogenous in cells; host or cells: primary mesenchymal stromal cells (MSCs) of multiple myeloma patients
T1 sequence (O00206 24-839): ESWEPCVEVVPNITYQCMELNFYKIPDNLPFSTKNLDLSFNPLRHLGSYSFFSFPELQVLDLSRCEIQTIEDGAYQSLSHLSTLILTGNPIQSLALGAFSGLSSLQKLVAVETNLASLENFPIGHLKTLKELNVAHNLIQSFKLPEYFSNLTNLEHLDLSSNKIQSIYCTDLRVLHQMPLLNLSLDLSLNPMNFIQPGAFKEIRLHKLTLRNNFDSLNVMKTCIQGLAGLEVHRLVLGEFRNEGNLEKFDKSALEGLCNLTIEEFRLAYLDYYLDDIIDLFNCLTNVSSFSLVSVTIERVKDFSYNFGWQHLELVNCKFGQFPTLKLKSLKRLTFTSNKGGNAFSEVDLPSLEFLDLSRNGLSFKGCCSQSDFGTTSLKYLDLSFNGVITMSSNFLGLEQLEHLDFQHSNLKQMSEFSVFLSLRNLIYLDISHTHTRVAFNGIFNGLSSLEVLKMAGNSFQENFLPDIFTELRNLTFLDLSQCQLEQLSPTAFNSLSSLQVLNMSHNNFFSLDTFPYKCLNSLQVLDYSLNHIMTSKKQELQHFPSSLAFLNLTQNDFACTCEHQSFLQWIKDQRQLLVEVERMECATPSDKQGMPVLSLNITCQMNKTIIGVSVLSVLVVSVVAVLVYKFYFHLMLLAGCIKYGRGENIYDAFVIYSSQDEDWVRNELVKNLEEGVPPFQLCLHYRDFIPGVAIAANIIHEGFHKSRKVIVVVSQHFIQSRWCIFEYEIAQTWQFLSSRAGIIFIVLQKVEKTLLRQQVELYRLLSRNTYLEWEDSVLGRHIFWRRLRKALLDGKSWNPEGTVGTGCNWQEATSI
T1 sequence (Q9Y6Y9 17-160 limits assumed): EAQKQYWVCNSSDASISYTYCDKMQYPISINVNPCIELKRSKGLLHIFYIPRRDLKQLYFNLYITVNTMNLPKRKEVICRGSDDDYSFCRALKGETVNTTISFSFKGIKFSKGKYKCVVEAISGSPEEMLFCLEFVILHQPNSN
Description: FIG. 3: Expression of different adhesion molecules involved in the interaction with MM plasma cells (CD49d, CD49e, CD54 and CD106) on the surface of MSCs of healthy subjects and patients with MM, stimulated or not with LPS. *p≤0.05**p≤0.01
FIG. 5: Expression of CD54 by MSCs from healthy donors or from patients with MM, whether stimulated or not with Hsp70. p*≤0.05
(§5) The inventors then studied the differential activation of TLR4 in the MSCs of healthy donors or MM patients. They analyzed the effect of stimulation by LPS, the TLR4 reference ligand widely described in the literature, on the expression of several adhesion molecules (CD49d/VLA-4, CD49e/VLA-5, CD54/ICAM-1 and CD106/VCAM-1) involved in the interaction between MSCs and malignant plasma cells. The level of expression (MFI: mean fluorescence intensity) of each molecule is shown in the histogram of FIG. 3.
In order to further investigate the role of TLR4 in the context of MM and to move closer to pathophysiology, the inventors stimulated MSCs with Hsp70, an endogenous ligand of TLR4 actively released in the MM microenvironment and secreted by the cell line of MM MOLP-6 (up to 200 ng/ml) (FIG. 4). In addition, this endogenous ligand has been described in the literature to have a chemoprotective role for MM malignant plasma cells (Nimmanapalli et al (2008) Br. Haematol 142: 551-561). […] Indeed Hsp-70 is a monomeric molecule and therefore induces a less important stimulation than LPS (multimeric). Nevertheless, once again, the MM MSCs respond better than the healthy MSCs.

TLR4 [5] = target: T1, TLR4; experiment: Secretion of soluble factors (IGF-1, IL6) by MM patient MSCs after TLR4 stimulation; type: cell-based
Description: (§6) FIG. 6: Secretion of IL6 by MSCs from healthy donors or from patients with MM, stimulated or not with LPS.
FIG. 7: Secretion of IL6 by MSCs of healthy donors or from MM patients, whether stimulated or not with Hsp70.
(§7) The inventors also evaluated the effect of TLR4 stimulation on the soluble IGF-1 and IL6 factors involved in the survival and proliferation of myeloma cells.

TLR4 [6] = target: T1, TLR4; experiment: Secretion of soluble factors (IGF-1, IL6) by healthy donor MSCs after TLR4 stimulation; type: cell-based
Description: as §6, §7

TLR4 [7] = target: T1, TLR4; experiment: Adhesion molecule expression on healthy donor MSCs after TLR4 stimulation; type: cell-based
Description: as §5, with “FIG. 3: Expression of different adhesion molecules involved in the interaction with MM plasma cells (CD49d, CD49e, CD54 and CD106) on the surface of MSCs of healthy subjects and patients with MM, stimulated or not with LPS. *p≤0.05**p≤0.01 FIG. 5: Expression of CD54 by MSCs from healthy donors or from patients with MM, whether stimulated or not with Hsp70. p*≤0.05 The inventors” for “The inventors”

[8] = MM MSCs, stimulation with Hsp70

Compound: CC(=O)N[C@H]1[C@@H](OC(C)C)O[C@H](COC(C)=O)[C@@H](OC(C)=O)[C@@H]1OC(C)=O [C34]
- direct effect on MOLP-6 cells (number of myeloma cells) (MOLP-6 cells [1]): did not directly affect
- effect on inhibition of proliferation of MM plasmocytes in combination with lenalidomide (MOLP-6 cells [2]; MM MSC coculture, C34 1 μM + lenalidomide 100 nM, 7 days): synergistic effect
- effect on inhibition of proliferation of MM plasmocytes in combination with melphalan (MOLP-6 cells [2]; MM MSC coculture, C34 1 μM + melphalan 100 nM, 7 days): synergistic effect
- decrease of growth of MOLP-6 cells (MOLP-6 cells [2]; stroma of MM, C34 at the two doses used (1 and 10 μM)): 33%
- effect on inhibition of plasmocyte growth in the presence of chemotherapeutic agents (MOLP-6 cells [3]; healthy MSC/MOLP-6 cocultures, C34 1 μM + melphalan or lenalidomide 100 nM, 7 days): no significant synergistic effect
- effect on the growth support of MOLP-6 (MOLP-6 cells [3]; healthy stroma, C34 at 1 and 10 μM): no effect

Compound: Hsp70: endogenous ligand of TLR4, chaperone heat shock protein 70
- CD54 expression (TLR4 [4]; [8]): significantly increased
- IL6 secretion (TLR4 [5]; [8]): increases

Compound: lipopolysaccharide [LPS]
- expression of CD49e (TLR4 [4]; MM MSC, LPS stimulation): significantly increased
- expression of CD106 (TLR4 [4]; MM MSC, LPS stimulation): no effect
- expression of CD49d (TLR4 [4]; MM MSC, LPS stimulation): no effect
- CD54 MFI (TLR4 [4]; MSCs of MM after LPS stimulation (basal 4.3)): 215.9 and 216
- secretion of IL6 (TLR4 [6]; healthy MSCs after LPS stimulation (unstimulated 0.02)): 0.1 pg/cell
- IGF-1 secretion (TLR4 [6]; healthy MSCs, LPS stimulation): no effect
- IGF-1 secretion (TLR4 [5]; MM MSCs, LPS stimulation): no effect
- secretion of IL6 (TLR4 [5]; MSCs of MM after LPS stimulation (unstimulated 0.08)): 0.7 pg/cell
- expression of CD49e (TLR4 [7]; healthy MSC, LPS stimulation): significantly increased
- expression of CD106 (TLR4 [7]; healthy MSC, LPS stimulation): no effect
- expression of CD49d (TLR4 [7]; healthy MSC, LPS stimulation): no effect
- CD54 MFI (TLR4 [7]; healthy MSCs after LPS stimulation (basal 9.6)): 148.7 and 149
